Test results as given in ChEMBL document CHEMBL4507259 (2021).

How the values were obtained:
NCI-H2081 = experiment: H2081 cell line Proliferation assay; format: functional, Homo sapiens; details: Compound concentration 10 uM; time 4 day
MDA-MB-436 = experiment: MDA_MB_436 cell line Proliferation assay; format: functional, Homo sapiens; details: Compound concentration 10 uM; time 5 day
EOL1 = experiment: EOL-1 cell line Proliferation assay; format: functional, Homo sapiens; details: Compound concentration 10 uM; time 3 day
MOLT-4 = experiment: MOLT-4 cell line Proliferation assay; format: functional, Homo sapiens; details: Compound concentration 10 uM; time 3 day
HCC1806 = experiment: HCC1806 cell line Proliferation assay; format: functional, Homo sapiens; details: Compound concentration 10 uM; time 5 day
OCI-AML-5 = experiment: OCI-AML5 cell line Proliferation assay; format: functional, Homo sapiens; details: Compound concentration 10 uM; time 3 day
RCK8 = experiment: RCK8 cell line Proliferation assay; format: functional, Homo sapiens; details: Compound concentration 10 uM; time 3 day
DOHH-2 = experiment: DoHH2 cell line Proliferation assay; format: functional, Homo sapiens; details: Compound concentration 10 uM; time 3 day
Jurkat = experiment: Jurkat cell line Proliferation assay; format: functional, Homo sapiens; details: Compound concentration 10 uM; time 3 day
U2932 = experiment: U2932 cell line Proliferation assay; format: functional, Homo sapiens; details: Compound concentration 10 uM; time 3 day
[1] = target: Translocator protein (Rattus norvegicus) (UniProt P16257); experiment: BZD (peripheral) CEREP ligand profiling; details: filed as antagonist; Compound concentration 10.0 uM
AMO1 = experiment: AMO-1 cell line Proliferation assay; format: functional, Homo sapiens; details: Compound concentration 10 uM; time 3 day
ULA = experiment: ULA cell line Proliferation assay; format: functional, Homo sapiens; details: Compound concentration 10 uM; time 3 day
KMS-11 = experiment: KMS-11 cell line Proliferation assay; format: functional, Homo sapiens; details: Compound concentration 10 uM; time 3 day
NCI-H69 = experiment: H69 cell line Proliferation assay; format: functional, Homo sapiens; details: Compound concentration 10 uM; time 4 day
Hs 294T = experiment: Hs294T cell line Proliferation assay; format: functional, Homo sapiens; details: Compound concentration 10 uM; time 5 day
OCI-Ly18 = experiment: OCI Ly18 cell line Proliferation assay; format: functional, Homo sapiens; details: Compound concentration 10 uM; time 3 day
NCI-H1836 = experiment: H1836 cell line Proliferation assay; format: functional, Homo sapiens; details: Compound concentration 10 uM; time 4 day
Rec1 = experiment: REC1 cell line Proliferation assay; format: functional, Homo sapiens; details: Compound concentration 10 uM; time 3 day
[2] = target: Sodium-dependent dopamine transporter (Homo sapiens, UniProt Q01959); experiment: GPCRScan assay: inhibition of DAT; set-up: radioligand conc. used [nm] 3.6 – 16.0, parental cells stable HEK
MDA-MB-468 = experiment: MDA_MB_468 cell line Proliferation assay; format: functional, Homo sapiens; details: Compound concentration 10 uM; time 5 day
DU-4475 = experiment: DU4475 cell line Proliferation assay; format: functional, Homo sapiens; details: Compound concentration 10 uM; time 5 day
OCI-Ly1 = experiment: OCI Ly1 cell line Proliferation assay; format: functional, Homo sapiens; details: Compound concentration 10 uM; time 3 day
HCC2935 = experiment: HCC2935 cell line Proliferation assay; format: functional, Homo sapiens; details: Compound concentration 10 uM; time 3 day
BT-20 = experiment: BT-20 cell line Proliferation assay; format: functional, Homo sapiens; details: Compound concentration 10 uM; time 5 day
CWR22R = experiment: 22Rv1 cell line Proliferation assay; format: functional, Homo sapiens; details: Compound concentration 10 uM; time 5 day
NCI-H727 = experiment: H727 cell line Proliferation assay; format: functional, Homo sapiens; details: Compound concentration 10 uM; time 3 day
SU-DHL-8 = experiment: SuDHL8 cell line Proliferation assay; format: functional, Homo sapiens; details: Compound concentration 10 uM; time 3 day
[3] = target: Prostaglandin G/H synthase 2 (Homo sapiens) (UniProt P35354); experiment: COX2(h) CEREP ligand profiling; details: Compound concentration 10.0 uM
L-363 = experiment: L-363 cell line Proliferation assay; format: functional, Homo sapiens; details: Compound concentration 10 uM; time 3 day
HCC38 = experiment: HCC38 cell line Proliferation assay; format: functional, Homo sapiens; details: Compound concentration 10 uM; time 5 day
SK-MEL-24 = experiment: SKMEL24 cell line Proliferation assay; format: functional, Homo sapiens; details: Compound concentration 10 uM; time 5 day
DU-145 = experiment: DU-145 cell line Proliferation assay; format: functional, Homo sapiens; details: Compound concentration 10 uM; time 5 day
[4] = target: T1, 5-hydroxytryptamine receptor 3A (Homo sapiens) (UniProt P46098); details: Compound concentration 10.0 uM
T1 sequence (whole entry): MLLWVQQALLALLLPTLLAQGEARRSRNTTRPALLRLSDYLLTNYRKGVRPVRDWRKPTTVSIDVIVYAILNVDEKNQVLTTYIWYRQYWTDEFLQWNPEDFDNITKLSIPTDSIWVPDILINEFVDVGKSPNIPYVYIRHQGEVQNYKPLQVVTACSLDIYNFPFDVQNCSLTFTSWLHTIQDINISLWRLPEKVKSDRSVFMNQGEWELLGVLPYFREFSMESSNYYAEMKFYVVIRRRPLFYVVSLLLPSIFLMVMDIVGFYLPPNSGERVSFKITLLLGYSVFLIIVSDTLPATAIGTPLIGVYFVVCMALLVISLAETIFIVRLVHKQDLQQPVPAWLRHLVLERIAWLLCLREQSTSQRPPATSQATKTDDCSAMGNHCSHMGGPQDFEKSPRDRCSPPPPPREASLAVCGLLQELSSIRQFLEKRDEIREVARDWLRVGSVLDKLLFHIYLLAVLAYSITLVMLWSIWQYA

MM1.S = experiment: MM1.s cell line Proliferation assay; format: functional, Homo sapiens; details: Compound concentration 10 uM; time 3 day
KARPAS-299 = experiment: KARPAS-299 cell line Proliferation assay; format: functional, Homo sapiens; details: Compound concentration 10 uM; time 3 day
SU-DHL-5 = experiment: SuDHL5 cell line Proliferation assay; format: functional, Homo sapiens; details: Compound concentration 10 uM; time 3 day
HCC70 = experiment: HCC70 cell line Proliferation assay; format: functional, Homo sapiens; details: Compound concentration 10 uM; time 5 day
[5] = target: Delta-type opioid receptor (Homo sapiens) (UniProt P41143); details: Compound concentration 10.0 uM
Calu-6 = experiment: Calu 6 cell line Proliferation assay; format: functional, Homo sapiens; details: Compound concentration 10 uM; time 3 day
SKM-1 = experiment: SKM-1 cell line Proliferation assay; format: functional, Homo sapiens; details: Compound concentration 10 uM; time 3 day
[6] = target: Histone acetyltransferase KAT5 (Homo sapiens) (UniProt Q92993); experiment: TIP60 (HAT) CEREP ligand profiling; details: Compound concentration 10.0 uM
Karpas-1106P = experiment: K1106 cell line Proliferation assay; format: functional, Homo sapiens; details: Compound concentration 10 uM; time 3 day
G-361 = experiment: G361 cell line Proliferation assay; format: functional, Homo sapiens; details: Compound concentration 10 uM; time 5 day
NCI-H1048 = experiment: H1048 cell line Proliferation assay; format: functional, Homo sapiens; details: Compound concentration 10 uM; time 4 day
OCI-AML2 = experiment: OCI-AML2 cell line Proliferation assay; format: functional, Homo sapiens; details: Compound concentration 10 uM; time 3 day
HT-144 = experiment: HT-144 cell line Proliferation assay; format: functional, Homo sapiens; details: Compound concentration 10 uM; time 5 day
[7] = target: GABA-A receptor; alpha-1/beta-2/gamma-2 (Homo sapiens) (UniProt P14867+P47870+P18507); experiment: GABAA1 (h) (alpha 1,beta 2,gamma 2) CEREP ligand profiling; format: protein-complex assay; details: filed as agonist, Compound concentration 10.0 uM
[8] = target: Calcitonin-gene-related peptide receptor, CALCRL/RAMP1 (Homo sapiens) (UniProt O60894+Q16602); experiment: Calcitonin Gene-Related Peptide CGRP1 CEREP ligand profiling; format: protein-complex assay; details: Compound concentration 10.0 uM
[9] = target: Serine/threonine-protein kinase PAK 2 (Homo sapiens) (UniProt Q13177); details: Compound concentration 1000.0 nM
[10] = target: Cyclin-dependent kinase-like 3 (Homo sapiens) (UniProt Q8IVW4); details: Compound concentration 1000.0 nM
[11] = target: Cyclin-dependent kinase 15 (Homo sapiens) (UniProt Q96Q40); details: Compound concentration 1000.0 nM
[12] = target: Cyclin-dependent kinase 9 (Homo sapiens) (UniProt P50750); details: Compound concentration 1000.0 nM
[13] = target: Cyclin-dependent kinase 18 (Homo sapiens) (UniProt Q07002); details: Compound concentration 1000.0 nM
[14] = target: Tyrosine-protein kinase ITK/TSK (Homo sapiens) (UniProt Q08881); details: Compound concentration 1000.0 nM
[15] = target: Neuropeptide Y receptor type 1 (Homo sapiens) (UniProt P25929); experiment: Y1 (h) CEREP ligand profiling; details: filed as agonist, Compound concentration 10.0 uM
[16] = target: Homeodomain-interacting protein kinase 1 (Homo sapiens) (UniProt Q86Z02); details: Compound concentration 1000.0 nM

Sequence of Sodium-dependent dopamine transporter (Q01959 whole entry): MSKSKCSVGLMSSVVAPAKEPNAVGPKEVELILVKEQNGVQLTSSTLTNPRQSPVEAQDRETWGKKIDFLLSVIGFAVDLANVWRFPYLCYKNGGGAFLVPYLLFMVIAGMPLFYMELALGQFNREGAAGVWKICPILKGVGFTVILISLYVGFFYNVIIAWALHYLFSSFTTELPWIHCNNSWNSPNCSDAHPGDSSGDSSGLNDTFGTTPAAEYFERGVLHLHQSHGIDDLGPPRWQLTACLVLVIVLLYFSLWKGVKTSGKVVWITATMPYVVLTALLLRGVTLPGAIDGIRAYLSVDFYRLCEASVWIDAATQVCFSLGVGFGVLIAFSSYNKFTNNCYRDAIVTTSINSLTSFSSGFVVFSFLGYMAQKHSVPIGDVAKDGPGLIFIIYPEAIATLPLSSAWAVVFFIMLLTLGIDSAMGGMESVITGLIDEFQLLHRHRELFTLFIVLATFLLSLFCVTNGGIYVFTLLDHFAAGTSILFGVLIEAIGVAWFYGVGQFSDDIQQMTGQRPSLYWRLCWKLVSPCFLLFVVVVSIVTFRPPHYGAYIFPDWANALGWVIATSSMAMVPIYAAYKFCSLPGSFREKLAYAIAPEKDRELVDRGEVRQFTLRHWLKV
Sequence of Serine/threonine-protein kinase PAK 2 (Homo sapiens) (Q13177 whole entry): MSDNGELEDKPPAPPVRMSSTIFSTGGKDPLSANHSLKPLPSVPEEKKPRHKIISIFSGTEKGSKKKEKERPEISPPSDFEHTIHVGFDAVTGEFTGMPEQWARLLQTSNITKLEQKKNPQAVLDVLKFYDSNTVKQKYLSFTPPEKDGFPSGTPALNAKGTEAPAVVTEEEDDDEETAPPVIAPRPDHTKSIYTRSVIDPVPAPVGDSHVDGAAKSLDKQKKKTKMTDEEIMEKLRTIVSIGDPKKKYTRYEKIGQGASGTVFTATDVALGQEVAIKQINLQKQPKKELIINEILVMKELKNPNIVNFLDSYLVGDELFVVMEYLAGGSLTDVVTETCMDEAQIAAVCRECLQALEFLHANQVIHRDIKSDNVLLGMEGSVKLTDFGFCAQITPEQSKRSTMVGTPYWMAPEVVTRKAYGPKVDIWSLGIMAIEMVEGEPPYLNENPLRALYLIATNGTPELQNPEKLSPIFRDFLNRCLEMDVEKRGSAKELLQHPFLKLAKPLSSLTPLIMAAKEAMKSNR
Sequence of Cyclin-dependent kinase 9 (Homo sapiens) (P50750 whole entry): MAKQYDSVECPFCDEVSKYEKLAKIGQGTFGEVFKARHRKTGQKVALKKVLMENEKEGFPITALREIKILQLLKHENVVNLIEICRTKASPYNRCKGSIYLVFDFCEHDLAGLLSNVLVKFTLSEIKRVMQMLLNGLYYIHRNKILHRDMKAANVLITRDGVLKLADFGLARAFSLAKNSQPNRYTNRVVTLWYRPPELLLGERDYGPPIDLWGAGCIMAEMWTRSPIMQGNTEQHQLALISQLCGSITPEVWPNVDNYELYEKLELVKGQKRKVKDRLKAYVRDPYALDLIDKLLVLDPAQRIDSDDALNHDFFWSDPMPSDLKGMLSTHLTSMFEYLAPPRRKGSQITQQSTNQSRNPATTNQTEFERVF
Sequence of Prostaglandin G/H synthase 2 (Homo sapiens) (P35354 whole entry): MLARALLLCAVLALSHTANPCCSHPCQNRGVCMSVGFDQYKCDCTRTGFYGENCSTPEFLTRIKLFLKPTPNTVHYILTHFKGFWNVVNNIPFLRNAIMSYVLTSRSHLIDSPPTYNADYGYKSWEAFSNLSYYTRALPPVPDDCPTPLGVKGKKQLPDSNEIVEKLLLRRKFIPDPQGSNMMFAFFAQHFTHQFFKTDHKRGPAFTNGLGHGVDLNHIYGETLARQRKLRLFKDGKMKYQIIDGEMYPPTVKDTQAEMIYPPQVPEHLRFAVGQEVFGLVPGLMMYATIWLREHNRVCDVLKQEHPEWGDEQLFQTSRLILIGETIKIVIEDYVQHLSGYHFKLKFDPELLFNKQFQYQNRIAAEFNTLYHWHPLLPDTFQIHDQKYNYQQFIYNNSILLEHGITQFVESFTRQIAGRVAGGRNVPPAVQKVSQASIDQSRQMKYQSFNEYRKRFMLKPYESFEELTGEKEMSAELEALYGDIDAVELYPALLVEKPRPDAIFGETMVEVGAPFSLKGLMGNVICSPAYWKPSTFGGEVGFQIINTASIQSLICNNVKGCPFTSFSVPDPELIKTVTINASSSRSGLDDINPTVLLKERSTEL
Sequence of Delta-type opioid receptor (Homo sapiens) (P41143 whole entry): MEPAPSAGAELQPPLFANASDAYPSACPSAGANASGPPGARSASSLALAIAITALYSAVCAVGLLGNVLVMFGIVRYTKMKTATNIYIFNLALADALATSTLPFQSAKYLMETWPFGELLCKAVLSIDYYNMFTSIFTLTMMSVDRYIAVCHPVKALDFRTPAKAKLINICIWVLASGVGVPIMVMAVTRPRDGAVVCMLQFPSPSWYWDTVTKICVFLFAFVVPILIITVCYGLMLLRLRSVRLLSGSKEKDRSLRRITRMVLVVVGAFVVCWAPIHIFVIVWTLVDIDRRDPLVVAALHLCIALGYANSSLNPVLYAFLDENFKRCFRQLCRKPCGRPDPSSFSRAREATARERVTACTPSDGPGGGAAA
Sequence of Tyrosine-protein kinase ITK/TSK (Homo sapiens) (Q08881 whole entry): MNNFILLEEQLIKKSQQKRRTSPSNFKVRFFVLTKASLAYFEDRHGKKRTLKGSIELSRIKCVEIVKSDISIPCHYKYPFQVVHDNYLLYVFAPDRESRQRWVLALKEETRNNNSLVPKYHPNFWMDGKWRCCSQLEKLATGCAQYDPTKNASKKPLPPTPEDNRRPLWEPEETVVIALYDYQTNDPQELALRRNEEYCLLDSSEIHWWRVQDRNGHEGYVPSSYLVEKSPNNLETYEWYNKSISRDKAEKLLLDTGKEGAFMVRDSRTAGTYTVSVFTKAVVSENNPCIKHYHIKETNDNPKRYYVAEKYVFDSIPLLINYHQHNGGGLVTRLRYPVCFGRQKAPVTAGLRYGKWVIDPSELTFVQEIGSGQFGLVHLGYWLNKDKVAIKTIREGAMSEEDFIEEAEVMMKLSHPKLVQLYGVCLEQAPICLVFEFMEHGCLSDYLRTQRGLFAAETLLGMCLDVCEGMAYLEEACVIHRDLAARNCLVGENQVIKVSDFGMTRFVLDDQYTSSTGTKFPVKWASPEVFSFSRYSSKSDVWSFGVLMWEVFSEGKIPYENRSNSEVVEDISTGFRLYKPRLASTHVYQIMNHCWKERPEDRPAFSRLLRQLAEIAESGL
Sequence of Neuropeptide Y receptor type 1 (Homo sapiens) (P25929 whole entry): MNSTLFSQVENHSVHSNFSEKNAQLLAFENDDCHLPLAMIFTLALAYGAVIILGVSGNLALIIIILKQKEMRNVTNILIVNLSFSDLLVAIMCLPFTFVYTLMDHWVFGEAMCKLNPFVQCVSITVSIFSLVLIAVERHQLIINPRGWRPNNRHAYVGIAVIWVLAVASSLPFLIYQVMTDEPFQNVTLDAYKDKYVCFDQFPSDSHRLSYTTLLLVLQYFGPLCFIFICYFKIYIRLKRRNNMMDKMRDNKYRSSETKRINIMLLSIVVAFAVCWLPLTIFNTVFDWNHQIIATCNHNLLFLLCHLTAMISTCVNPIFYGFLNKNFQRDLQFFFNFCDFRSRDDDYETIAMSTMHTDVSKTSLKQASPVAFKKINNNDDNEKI
Sequence of Histone acetyltransferase KAT5 (Homo sapiens) (Q92993 whole entry, looked up): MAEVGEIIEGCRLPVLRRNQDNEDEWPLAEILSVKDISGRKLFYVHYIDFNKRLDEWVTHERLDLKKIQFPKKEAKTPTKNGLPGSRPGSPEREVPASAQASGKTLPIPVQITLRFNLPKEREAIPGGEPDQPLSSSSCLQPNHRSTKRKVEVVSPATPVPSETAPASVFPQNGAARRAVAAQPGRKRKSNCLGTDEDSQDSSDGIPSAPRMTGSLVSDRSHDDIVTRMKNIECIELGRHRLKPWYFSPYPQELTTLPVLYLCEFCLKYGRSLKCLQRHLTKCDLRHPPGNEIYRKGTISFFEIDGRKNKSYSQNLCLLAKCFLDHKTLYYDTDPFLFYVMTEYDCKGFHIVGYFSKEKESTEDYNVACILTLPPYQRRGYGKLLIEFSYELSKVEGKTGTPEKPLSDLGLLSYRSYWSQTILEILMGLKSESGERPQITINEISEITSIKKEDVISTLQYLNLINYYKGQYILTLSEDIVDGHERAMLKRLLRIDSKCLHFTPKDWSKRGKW
Sequence of Translocator protein (Rattus norvegicus) (P16257 whole entry, looked up): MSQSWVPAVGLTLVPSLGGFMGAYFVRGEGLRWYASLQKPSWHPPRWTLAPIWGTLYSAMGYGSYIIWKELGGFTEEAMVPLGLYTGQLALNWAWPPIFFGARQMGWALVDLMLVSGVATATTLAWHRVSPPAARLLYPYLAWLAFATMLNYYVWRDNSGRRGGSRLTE
Sequence of Cyclin-dependent kinase 18 (Homo sapiens) (Q07002 whole entry): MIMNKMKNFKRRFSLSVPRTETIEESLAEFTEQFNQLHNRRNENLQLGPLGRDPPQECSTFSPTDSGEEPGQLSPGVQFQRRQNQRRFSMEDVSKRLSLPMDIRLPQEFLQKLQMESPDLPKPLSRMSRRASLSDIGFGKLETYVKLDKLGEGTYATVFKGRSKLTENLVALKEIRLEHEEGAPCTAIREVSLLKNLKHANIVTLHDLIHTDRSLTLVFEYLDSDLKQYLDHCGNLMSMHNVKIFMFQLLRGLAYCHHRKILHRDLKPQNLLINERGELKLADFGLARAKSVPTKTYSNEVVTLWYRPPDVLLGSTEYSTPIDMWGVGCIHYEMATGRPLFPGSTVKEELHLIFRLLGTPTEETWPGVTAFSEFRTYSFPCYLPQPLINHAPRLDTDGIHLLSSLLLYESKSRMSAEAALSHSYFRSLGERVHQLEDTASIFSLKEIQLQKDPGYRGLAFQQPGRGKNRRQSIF

Structure (SMILES): CNC(=O)Nc1ccc2c(c1)CC[C@@]21OC(=O)N(CC(=O)N(Cc2ccc(F)cc2)[C@@H](C)C(F)(F)F)C1=O [A-485]
- Cell Proliferation EC50 (NCI-H2081): >10000 nM
- Cell Proliferation EC50 (MDA-MB-436): >10000 nM
- Cell Proliferation EC50 (EOL1): >10000 nM
- Cell Proliferation EC50 (MOLT-4): >10000 nM
- Cell Proliferation EC50 (HCC1806): 2951.2 nM
- Cell Proliferation EC50 (OCI-AML-5): 4860 nM
- Cell Proliferation EC50 (RCK8): 589.3 nM
- Cell Proliferation EC50 (DOHH-2): 751.2 nM
- Cell Proliferation EC50 (Jurkat): 4030 nM
- Cell Proliferation EC50 (U2932): 2460 nM
- inhibition [1]: 72%
- Cell Proliferation EC50 (AMO1): 1093 nM
- Cell Proliferation EC50 (ULA): 550.6 nM
- Cell Proliferation EC50 (KMS-11): 241 nM
- Cell Proliferation EC50 (NCI-H69): >10000 nM
- Cell Proliferation EC50 (Hs 294T): 9000 nM
- Cell Proliferation EC50 (OCI-Ly18): 321.3 nM
- Cell Proliferation EC50 (NCI-H1836): >10000 nM
- Cell Proliferation EC50 (Rec1): >10000 nM
- Ki ([2]; read-out: Ki): 1820 nM
- Ki ([2]; read-out: pKi (converted)): 1780 nM
- Cell Proliferation EC50 (MDA-MB-468): 376.7 nM
- Cell Proliferation EC50 (DU-4475): 668.3 nM
- Cell Proliferation EC50 (OCI-Ly1): 940.5 nM
- Cell Proliferation EC50 (HCC2935): >10000 nM
- Cell Proliferation EC50 (BT-20): 336.5 nM
- Cell Proliferation EC50 (CWR22R): 320 nM
- Cell Proliferation EC50 (NCI-H727): 6632 nM
- Cell Proliferation EC50 (SU-DHL-8): 540 nM
- inhibition [3]: 11%
- Cell Proliferation EC50 (L-363): 509 nM
- Cell Proliferation EC50 (HCC38): >10000 nM
- Cell Proliferation EC50 (SK-MEL-24): >10000 nM
- Cell Proliferation EC50 (DU-145): >10000 nM
- inhibition [4]: -8.97%
- Cell Proliferation EC50 (MM1.S): 181 nM
- Cell Proliferation EC50 (KARPAS-299): >10000 nM
- Cell Proliferation EC50 (SU-DHL-5): 760.6 nM
- Cell Proliferation EC50 (HCC70): >10000 nM
- inhibition [5]: -2.53%
- Cell Proliferation EC50 (Calu-6): 8573 nM
- Cell Proliferation EC50 (SKM-1): 1340 nM
- inhibition [6]: -1.9%
- Cell Proliferation EC50 (Karpas-1106P): 405.1 nM
- Cell Proliferation EC50 (G-361): 3768 nM
- Cell Proliferation EC50 (NCI-H1048): >10000 nM
- Cell Proliferation EC50 (OCI-AML2): 2030 nM
- Cell Proliferation EC50 (HT-144): 3077 nM

Structure (SMILES): CNC(=O)Nc1ccc2c(c1)[C@@]1(CC2)OC(=O)N(CC(=O)N(Cc2ccc(F)cc2)[C@@H](C)C(F)(F)F)C1=O [A-486]
- inhibition [7]: 0%
- inhibition [8]: -10%
- residual activity [9]: 94%
- residual activity [10]: 92%
- residual activity [11]: 100%
- residual activity [12]: 91%
- residual activity [13]: 100%
- residual activity [14]: 92%
- inhibition [15]: -10%
- residual activity [16]: 78%
